From the supplement of paper PMC10307832

Columns and labels:
Assay in all cases: relative viability (nuclei count vs DMSO), 5 days (fraction); higher = more cells survive
[1] = tested on: 201T
Summary of the method: (§1)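 Dosing by pin tool came one day after lung cancer cell lines were seeded in 1536-well plates, using either one drug or a fixed anchor-drug dose plus five library-drug doses (not always all listed) in √10 steps. After 5 days, nuclei were counted on 4× images. Relative viability is treated-well nuclei count divided by vehicle-well nuclei count, and values are medians of duplicate plates.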

[2] = tested on: COR-L 105
Summary of the method: as §1

[3] = tested on: NCI-H460
Summary of the method: as §1

[4] = tested on: NCI-H3122
Summary of the method: as §1

[5] = tested on: LK-2
Summary of the method: as §1

[6] = tested on: NCI-H1437
Summary of the method: as §1

[7] = tested on: NCI-H727
Summary of the method: as §1

[8] = tested on: CAL-12T
Summary of the method: as §1

[9] = tested on: NCI-H1666
Summary of the method: as §1

[10] = tested on: HARA
Summary of the method: as §1

[11] = tested on: NCI-H2009
Summary of the method: as §1

[12] = tested on: EKVX
Summary of the method: as §1

[13] = tested on: HCC-366
Summary of the method: as §1

[14] = tested on: ABC-1
Summary of the method: as §1

[15] = tested on: NCI-H441
Summary of the method: as §1

[16] = tested on: PC-14
Summary of the method: as §1

[17] = tested on: BEN
Summary of the method: as §1

[18] = tested on: NCI-H661
Summary of the method: as §1

[19] = tested on: LOU-NH91
Summary of the method: as §1

Question: Which results are given for CCN(CC)CCCCNc1ncc2cc(-c3cc(OC)cc(OC)c3)c(NC(=O)NC(C)(C)C)nc2n1 + C[C@]1(O)C[C@@H](c2nc(-c3ccc4ccc(-c5ccccc5)nc4c3)c3c(N)nccn32)C1 [Linsitinib] (partner 1 µM)?
Answer: relative viability ([1]; first compound 0.01 µM): 1.07; relative viability ([1]; first compound 0.03162 µM): 1.02; relative viability ([1]; first compound 0.1 µM): 1.07; relative viability ([1]; first compound 0.3162 µM): 1.12; relative viability ([1]; first compound 1 µM): 1.02; relative viability ([2]; first compound 0.01 µM): 1.1; relative viability ([2]; first compound 0.03162 µM): 0.794; relative viability ([2]; first compound 0.1 µM): 1.02; relative viability ([2]; first compound 0.3162 µM): 0.963; relative viability ([2]; first compound 1 µM): 0.868; relative viability ([3]; first compound 0.01 µM): 1.05; relative viability ([3]; first compound 0.03162 µM): 0.985; relative viability ([3]; first compound 0.1 µM): 0.868; relative viability ([3]; first compound 0.3162 µM): 1.58; relative viability ([3]; first compound 1 µM): 0.293; relative viability ([4]; first compound 0.01 µM): 1.05; relative viability ([4]; first compound 0.03162 µM): 1.02; relative viability ([4]; first compound 0.1 µM): 1.08; relative viability ([4]; first compound 0.3162 µM): 1.04; relative viability ([4]; first compound 1 µM): 1.01; relative viability ([5]; first compound 0.01 µM): 0.536; relative viability ([5]; first compound 0.03162 µM): 0.339; relative viability ([5]; first compound 0.1 µM): 0.401; relative viability ([5]; first compound 0.3162 µM): 0.356; relative viability ([5]; first compound 1 µM): 0.17; relative viability ([6]; first compound 0.01 µM): 1.27; relative viability ([6]; first compound 0.03162 µM): 1.05; relative viability ([6]; first compound 0.1 µM): 1.13; relative viability ([6]; first compound 0.3162 µM): 1.22; relative viability ([6]; first compound 1 µM): 0.817; relative viability ([7]; first compound 0.01 µM): 0.297; relative viability ([7]; first compound 0.03162 µM): 0.251; relative viability ([7]; first compound 0.1 µM): 0.293; relative viability ([7]; first compound 0.3162 µM): 0.363; relative viability ([7]; first compound 1 µM): 0.301; relative viability ([8]; first compound 0.01 µM): 0.873; relative viability ([8]; first compound 0.03162 µM): 0.954; relative viability ([8]; first compound 0.1 µM): 0.729; relative viability ([8]; first compound 0.3162 µM): 0.906; relative viability ([8]; first compound 1 µM): 0.844; relative viability ([9]; first compound 0.01 µM): 1.04; relative viability ([9]; first compound 0.03162 µM): 0.674; relative viability ([9]; first compound 0.1 µM): 0.997; relative viability ([9]; first compound 0.3162 µM): 0.944; relative viability ([9]; first compound 1 µM): 0.726; relative viability ([10]; first compound 0.01 µM): 1.04; relative viability ([10]; first compound 0.03162 µM): 1; relative viability ([10]; first compound 0.1 µM): 0.989; relative viability ([10]; first compound 0.3162 µM): 0.933; relative viability ([10]; first compound 1 µM): 0.672; relative viability ([11]; first compound 0.01 µM): 1.29; relative viability ([11]; first compound 0.03162 µM): 1.19; relative viability ([11]; first compound 0.1 µM): 1.23; relative viability ([11]; first compound 0.3162 µM): 1.26; relative viability ([11]; first compound 1 µM): 1.21; relative viability ([12]; first compound 0.01 µM): 1.11; relative viability ([12]; first compound 0.03162 µM): 1.1; relative viability ([12]; first compound 0.1 µM): 0.93; relative viability ([12]; first compound 0.3162 µM): 1.09; relative viability ([12]; first compound 1 µM): 0.883; relative viability ([13]; first compound 0.01 µM): 0.622; relative viability ([13]; first compound 0.03162 µM): 0.706; relative viability ([13]; first compound 0.1 µM): 0.66; relative viability ([13]; first compound 0.3162 µM): 0.887; relative viability ([13]; first compound 1 µM): 0.505; relative viability ([14]; first compound 0.01 µM): 0.915; relative viability ([14]; first compound 0.03162 µM): 0.809; relative viability ([14]; first compound 0.1 µM): 0.88; relative viability ([14]; first compound 0.3162 µM): 0.838; relative viability ([14]; first compound 1 µM): 0.722; relative viability ([15]; first compound 0.01 µM): 0.626; relative viability ([15]; first compound 0.03162 µM): 0.441; relative viability ([15]; first compound 0.1 µM): 0.808; relative viability ([15]; first compound 0.3162 µM): 0.635; relative viability ([15]; first compound 1 µM): 0.432; relative viability ([16]; first compound 0.01 µM): 1.01; relative viability ([16]; first compound 0.03162 µM): 1.03; relative viability ([16]; first compound 0.1 µM): 1.02; relative viability ([16]; first compound 0.3162 µM): 1.09; relative viability ([16]; first compound 1 µM): 0.885; relative viability ([17]; first compound 0.01 µM): 1.11; relative viability ([17]; first compound 0.03162 µM): 0.838; relative viability ([17]; first compound 0.1 µM): 0.894; relative viability ([17]; first compound 0.3162 µM): 1.07; relative viability ([17]; first compound 1 µM): 0.691; relative viability ([18]; first compound 0.01 µM): 0.568; relative viability ([18]; first compound 0.03162 µM): 0.45; relative viability ([18]; first compound 0.1 µM): 0.58; relative viability ([18]; first compound 0.3162 µM): 0.61; relative viability ([18]; first compound 1 µM): 0.535; relative viability ([19]; first compound 0.01 µM): 0.882; relative viability ([19]; first compound 0.03162 µM): 0.938; relative viability ([19]; first compound 0.1 µM): 0.968; relative viability ([19]; first compound 0.3162 µM): 0.996; relative viability ([19]; first compound 1 µM): 0.93
